Data set [1] addresses T1, Cyclin-dependent kinase inhibitor 2A (Homo sapiens) (UniProt P42771).
T1 sequence (whole entry): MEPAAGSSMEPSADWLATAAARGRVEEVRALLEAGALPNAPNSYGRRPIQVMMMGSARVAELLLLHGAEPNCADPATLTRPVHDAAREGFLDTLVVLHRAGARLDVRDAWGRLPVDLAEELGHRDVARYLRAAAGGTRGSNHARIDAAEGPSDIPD
Description: Inhibition of GFP-tagged p16INK4A (unknown orgin) expressed in human dermal fibroblast at 20 uM after 24 hrs by renilla/firefly dual-luciferase reporter assay relative to control. It counts as cell-based. As to conditions: NHDF. (In general: A reporter such as luciferase makes a cellular process visible.)

For data set [2], the system named is NHDF. Description: Senolytic activity in 35 passages senescent human dermal fibroblast cells assessed as reduction cell viability at 20 uM after 3 days by MTT assay relative to control. It counts as functional. Background: Formazan colour is commonly taken as a measure of viable cells.
Data set [3] concerns NHDF. As to the kind of experiment: Cytotoxicity against human dermal fibroblast assessed as reduction in cell viability at 20 uM after 3 days by MTT assay. It is filed as cell-based. As to conditions: 72 h, time 3 day.

Calls of active or inactive are those of the source. No cut-off for these calls is given here.

As usually defined, the inhibition is the change of the read-out against control, counted positive when it falls. Compound `O=C1c2c(cc(O)c3c(-c4cc(O)cc(O)c4)c(-c4ccc(O)cc4)oc23)O[C@@H](c2ccc(O)cc2)[C@@H]1O` had an inhibition in data set [1] of 32%. In addition, the Activity in the data set on NHDF [2] (time 3 day) is on record as 34%; in the data set with NHDF [3] it was “Non-Toxic”. Take `O=C1c2c(cc(O)c3c2O[C@H](c2ccc(O)cc2)[C@H]3c2cc(O)cc(O)c2)O[C@@H](c2ccc(O)cc2)[C@@H]1O`: in the data set on NHDF [3], the Activity entry is listed as “Non-Toxic”. Turning to `O=C1c2c(cc(O[C@@H]3O[C@H](CO)[C@@H](O)[C@H](O)[C@H]3O)c3c2O[C@H](c2ccc(O)cc2)[C@H]3c2cc(O)cc(O)c2)O[C@@H](c2ccc(O)c(O)c2)[C@@H]1O`, the Activity result in the data set with NHDF [3] was “Non-Toxic”. As to `O=C1c2c(cc(O[C@@H]3O[C@H](CO)[C@@H](O)[C@H](O)[C@H]3O)c3c2O[C@H](c2ccc(O)cc2)[C@H]3c2cc(O)cc(O)c2)O[C@H](c2ccc(O)c(O)c2)[C@H]1O`, the Activity result in the data set with NHDF [3] is “Non-Toxic”. In the case of `COc1cc(CC[C@@H]2CC(=O)c3ccccc3O2)ccc1O`, in the data set on NHDF [2] (time 3.0 day), the outcome was Active. In the data set on NHDF [3], the Activity result is given as “Non-Toxic”. With `COc1cc(CCc2oc3ccccc3c(=O)c2O)ccc1O`, the Activity result in the data set with NHDF [3] was “Non-Toxic”. Take `O=C1C[C@@H](CCc2ccc(O)cc2)Oc2ccccc21`: in the data set on NHDF [2] (time 3.0 day), the result was Active. Moreover, in the data set with NHDF [3], the Activity result is recorded as “Non-Toxic”. With `O=C1c2c(cc(O)c3c2O[C@H](c2ccc(O)cc2)[C@H]3c2cc(O)cc(O)c2)O[C@@H](c2ccc(O)c(O)c2)[C@@H]1O`, in the data set with NHDF [3], the Activity result is listed as “Non-Toxic”.

As for `COc1c(CCc2cccc(O)c2)oc2ccccc2c1=O`, the Activity result with NHDF [3] was “Non-Toxic”. As for `O=C1C[C@@H](CCc2cccc(O)c2)Oc2ccccc21`, the Activity result in the data set with NHDF [3] is “Non-Toxic”. For the compound `O=C1c2c(cc(O)c3c2O[C@H](c2ccc(O[C@@H]4O[C@H](CO)[C@@H](O)[C@H](O)[C@H]4O)cc2)[C@H]3c2cc(O)cc(O)c2)O[C@@H](c2ccc(O)c(O)c2)[C@@H]1O`, the Activity result with NHDF [3] is recorded as “Non-Toxic”. On the same count and under the same terms, under `COc1cc(CCc2oc3ccccc3c(=O)c2OC)ccc1O` stands “Non-Toxic”.

The values are drawn from ChEMBL document CHEMBL4673337, “Phenolic Constituents of the Roots of Rhamnoneuron balansae with Senolytic Activity” (J Nat Prod, 2020).
